The source of these data is paper PMC11089510 (Journal of Medicinal Chemistry, 2024).

Where two headings read alike, the source gives them in different places. Bounds are passed on as bounds.

Data set [1] has as its target T1, NUDT5 (Homo sapiens, UniProt Q9UKK9). Description: NUDT5 catalytic assay (AMP-Glo). Conditions: for NUDT5 IC50: supplementary CSV; for NUDT5 inhibition: concentrations of up to 50 μM. It is filed as biochemical. On the procedure:
(§1) Inhibition activities of the compounds were determined using AMP-Glo system (Promega). The compounds were diluted from 50 μM to 0 μM in a final reaction containing 20 mM HEPES, 100 mM NaCl, 0.5 mM TCEP, 1 mM MgCl2, and 0.1% BSA, pH 7.4. […] The final DMSO concentration was 1% for all reactions. […] The reactions were further incubated with 4 μL of the detection solution for 1 h at rt. Luminescence signals were then measured in a PHERAstar FSX plate reader. Experiments were done in triplicate sets, and data were analyzed by GraphPad Prism 9. Inhibitor dose–response data were normalized to reactions containing vehicle only (1% v/v DMSO, 100% activity) and reactions containing 500 nM TH5427 (6) (1% v/v DMSO, 0% activity). Data are represented as the mean ± SD of two independent biological replicates.

A further data set addresses T2, recombinant human NUDT14 (Homo sapiens, UniProt O95848).
T2 sequence (O95848 1-222): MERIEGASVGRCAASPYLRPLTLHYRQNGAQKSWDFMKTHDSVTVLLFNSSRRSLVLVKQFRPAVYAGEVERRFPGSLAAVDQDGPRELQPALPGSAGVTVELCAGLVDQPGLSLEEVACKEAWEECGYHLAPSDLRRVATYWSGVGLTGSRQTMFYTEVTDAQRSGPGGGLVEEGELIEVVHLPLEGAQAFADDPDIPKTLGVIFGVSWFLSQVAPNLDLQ
Put plainly: NUDT14 catalytic assay (AMP-Glo). It is filed as biochemical. On the procedure: as §1

In data set [2] the target is T1, NUDT5. Description: biochemical. Further details: 6xHis tag followed by TEV site (N, cleaved yes); made in house; host or cells: Escherichia coli (DE3).
Data set [3] deals with T3, purified human NUDT14 protein (Homo sapiens, UniProt O95848).
T3 construct: 6xHis tag followed by TEV site (N, cleaved yes); made in house; host or cells: Escherichia coli (DE3)
T3 sequence (O95848 1-222): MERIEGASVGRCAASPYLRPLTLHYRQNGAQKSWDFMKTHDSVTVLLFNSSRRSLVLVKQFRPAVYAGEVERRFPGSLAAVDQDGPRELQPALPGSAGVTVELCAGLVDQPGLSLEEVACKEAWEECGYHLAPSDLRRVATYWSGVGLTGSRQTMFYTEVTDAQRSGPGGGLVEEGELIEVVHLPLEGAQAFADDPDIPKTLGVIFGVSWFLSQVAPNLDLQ
Put plainly: biochemical.

The target in another data set is T4, NUDT9 (Homo sapiens, UniProt Q9BW91).
T4 sequence (Q9BW91 1-350): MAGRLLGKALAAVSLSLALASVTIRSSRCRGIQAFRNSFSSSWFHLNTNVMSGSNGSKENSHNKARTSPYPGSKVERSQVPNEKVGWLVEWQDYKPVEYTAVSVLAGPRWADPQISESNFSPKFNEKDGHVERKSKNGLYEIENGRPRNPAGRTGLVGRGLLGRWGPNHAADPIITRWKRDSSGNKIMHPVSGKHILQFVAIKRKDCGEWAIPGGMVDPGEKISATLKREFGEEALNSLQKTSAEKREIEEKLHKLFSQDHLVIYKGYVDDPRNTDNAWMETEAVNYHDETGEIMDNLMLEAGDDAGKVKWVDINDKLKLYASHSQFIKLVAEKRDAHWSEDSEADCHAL
Description: biochemical.

In another data set the target is T5, NUDT18 (Homo sapiens, UniProt Q6ZVK8).
T5 sequence (Q6ZVK8 1-323): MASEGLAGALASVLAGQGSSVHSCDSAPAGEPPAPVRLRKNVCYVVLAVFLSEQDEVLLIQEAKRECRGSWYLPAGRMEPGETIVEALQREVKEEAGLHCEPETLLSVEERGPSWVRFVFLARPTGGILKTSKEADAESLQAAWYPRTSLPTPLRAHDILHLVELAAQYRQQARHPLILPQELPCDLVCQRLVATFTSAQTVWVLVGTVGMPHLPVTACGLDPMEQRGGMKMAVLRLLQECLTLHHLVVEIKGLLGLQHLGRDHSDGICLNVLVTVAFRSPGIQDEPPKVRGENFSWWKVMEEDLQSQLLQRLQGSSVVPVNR
Description: biochemical.

The next data set has as its target NUDT1 (Homo sapiens, UniProt P36639). Put plainly: biochemical.
A further data set addresses NUDT7 (Homo sapiens, UniProt P0C024). Put plainly: biochemical.
The target in a further data set is T6, NUDT17 (Homo sapiens, UniProt P0C025).
T6 sequence (P0C025 1-328): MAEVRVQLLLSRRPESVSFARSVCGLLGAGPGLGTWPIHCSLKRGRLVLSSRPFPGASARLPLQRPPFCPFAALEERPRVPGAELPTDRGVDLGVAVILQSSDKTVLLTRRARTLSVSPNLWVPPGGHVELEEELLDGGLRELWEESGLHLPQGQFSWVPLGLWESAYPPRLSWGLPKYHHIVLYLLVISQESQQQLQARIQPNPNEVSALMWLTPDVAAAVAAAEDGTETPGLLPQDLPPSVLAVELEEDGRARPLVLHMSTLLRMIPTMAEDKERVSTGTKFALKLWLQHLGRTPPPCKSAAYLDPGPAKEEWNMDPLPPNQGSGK
Description: biochemical.

The next data set concerns the target NUDT16 (Homo sapiens, UniProt Q96DE0). Put plainly: biochemical.
The target of the next data set is NUDT12 (Homo sapiens, UniProt Q9BQG2). Put plainly: biochemical.
NUDT12, sequence (Q9BQG2 whole entry): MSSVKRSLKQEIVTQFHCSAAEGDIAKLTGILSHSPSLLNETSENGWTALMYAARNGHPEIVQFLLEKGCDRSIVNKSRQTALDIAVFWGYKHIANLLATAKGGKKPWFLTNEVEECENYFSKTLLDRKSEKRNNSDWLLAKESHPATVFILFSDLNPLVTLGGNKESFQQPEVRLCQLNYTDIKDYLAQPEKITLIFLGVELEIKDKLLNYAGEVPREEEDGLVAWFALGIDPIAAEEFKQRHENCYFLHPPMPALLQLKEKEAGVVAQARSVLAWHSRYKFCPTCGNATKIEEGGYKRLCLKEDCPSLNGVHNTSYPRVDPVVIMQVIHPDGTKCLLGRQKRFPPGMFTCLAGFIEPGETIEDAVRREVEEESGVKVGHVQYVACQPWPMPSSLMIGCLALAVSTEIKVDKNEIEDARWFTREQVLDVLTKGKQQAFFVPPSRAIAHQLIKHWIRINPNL
For a further data set, the target named is NUDT16L1 (Homo sapiens, UniProt Q9BRJ7). Put plainly: biochemical.
NUDT16L1, sequence (Q9BRJ7 whole entry): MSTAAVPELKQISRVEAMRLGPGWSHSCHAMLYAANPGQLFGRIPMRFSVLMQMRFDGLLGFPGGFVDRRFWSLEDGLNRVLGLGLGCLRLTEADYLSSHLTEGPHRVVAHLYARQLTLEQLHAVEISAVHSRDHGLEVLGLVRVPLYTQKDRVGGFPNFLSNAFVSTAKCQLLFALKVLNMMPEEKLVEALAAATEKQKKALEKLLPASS
For the next data set, the target named is T7, NUDT15 (Homo sapiens, UniProt Q9NV35).
T7 sequence (Q9NV35 1-164): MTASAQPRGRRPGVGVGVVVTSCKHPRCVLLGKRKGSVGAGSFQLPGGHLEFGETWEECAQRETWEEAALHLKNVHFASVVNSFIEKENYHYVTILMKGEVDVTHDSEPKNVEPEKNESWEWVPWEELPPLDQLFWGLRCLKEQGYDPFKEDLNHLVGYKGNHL
Put plainly: biochemical.

Data set [4] concerns the target HiBiT-NUDT14 in intact HEK293 cells (Homo sapiens, UniProt O95848). Put plainly: HiBiT-NUDT14 cellular thermal shift assay (CETSA). It is filed as cell-based. (In general: HiBiT is a short tag that completes a luciferase, so light tracks the accessible tagged protein.)
Description: The Nano-Glo HiBiT lytic detection system was used following the manufacturer’s instructions (Promega). In brief, 400,000 HEK293 cells/mL were reverse-transfected with N-terminal HiBiT tagged NUDT14 using FuGENE transfection reagent (Promega). After 24 h of incubation, cells were trypsinized and resuspended at 400,000 cells/mL in assay medium. The cells were divided into compound and untreated (DMSO) groups and treated accordingly. Ten μL of cells were seeded into each well in a 384-well white PCR plate and incubated for 1 h. After incubation, the samples were heated in a PCR thermocycler at the desired temperature gradient. The plate was allowed to stand for 5 min at rt, and 10 μL of Nano-Glo HiBiT lytic mix was added into each well. The signals were measured in a PHERAstar FSX and analyzed by GraphPad Prism (v.9 or v.10).
The target of data set [5] is NanoLuc-NUDT5 in HEK293 cells (Homo sapiens, UniProt Q9UKK9). Put plainly: NUDT5 live-cell NanoBRET target engagement assay. It is filed as cell-based. Conditions: 2.5 nM CBH-004 tracer, 2 h. On the procedure: Donor and acceptor signals were measured in a PHERAstar FSX or FS plate reader and analyzed by GraphPad Prism (v.9 or v.10). […] Data were then normalized to DMSO.
(In general: Bioluminescence resonance energy transfer reports proximity on the nanometre scale.)

For the next data set, the target named is endogenous NUDT5 (Homo sapiens, UniProt Q9UKK9). Put plainly: Affinity pull-down with Western blot for NUDT5. It is filed as binding. Conditions: affinity matrix, cell lysate. (In general: Immunoblotting shows a protein as a band on a membrane.)
The next data set deals with BT-474 cells. Description: Cell viability assay (CellTiter-Glo). It is filed as cell-based. Conditions: Homo sapiens, 72 h of incubation. On the procedure: BT-474 cells were cultivated in DMEM containing 10% FBS at 37 °C and 5% CO2. […] Cells were trypsinized, counted, and diluted to 25,000 cells/mL in culture medium. 40 μL of cell suspension was seeded to each well, and plates were sealed with a breathable film and incubated for 72 h. Cell viability was determined using the CellTiter-Glo reagent following the manufacturer’s instructions (Promega). Luminescence signals were measured in a PHERAstar FS or FSX and analyzed by GraphPad Prism (v.9 or v.10). Data were normalized to DMSO.

Data set [6] deals with the molecule itself. Put plainly: crystal structure; NUDT14 (20 mg/mL) cocrystallised with compound 9 at a molar ratio of 1:5; 0.2 M MgCl2, 0.1 M bis-tris pH 6.5, 25% PEG3350; sitting drop, 4 °C; dimer of chains A and B.
The mark [7] stands for this setting: 1 nM NUDT14, 10 μM ADPr, 1 h, rt.
Where [8] appears, read: read-out: NUDT5 IC50, AMP-Glo, 1 nM NUDT5, 10 μM ADPr, 20 min, rt.

NUDT16, sequence (Q96DE0 whole entry): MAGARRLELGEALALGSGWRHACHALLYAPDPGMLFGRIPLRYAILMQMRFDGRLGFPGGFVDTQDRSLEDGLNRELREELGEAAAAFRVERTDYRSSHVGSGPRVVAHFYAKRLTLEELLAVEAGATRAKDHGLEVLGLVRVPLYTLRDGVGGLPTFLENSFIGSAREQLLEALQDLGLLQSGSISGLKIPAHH
NUDT7, sequence (P0C024 whole entry): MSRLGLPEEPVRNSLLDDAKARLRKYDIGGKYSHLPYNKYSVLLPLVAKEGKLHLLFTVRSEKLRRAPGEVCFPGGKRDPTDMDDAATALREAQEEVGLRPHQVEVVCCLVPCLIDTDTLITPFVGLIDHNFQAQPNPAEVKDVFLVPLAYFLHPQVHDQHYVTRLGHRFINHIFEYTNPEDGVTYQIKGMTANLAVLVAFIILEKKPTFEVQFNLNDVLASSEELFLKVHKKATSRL
Description for endogenous NUDT5: When reaching about 80% confluency, cells were harvested, washed with PBS, and frozen at −80 °C. Lysates were generated by adding 3× pellet volume of Buffer A (50 mM tris pH 7.5, 0.8% v/v NP-40, 5% v/v glycerol, 1.5 mM MgCl2, 100 mM NaCl, 25 mM NaF, 1 mM Na3VO4, 1 mM PMSF, 1 mM DTT, 10 μg/mL TLCK, 1 μg/mL Leupeptin, 1 μg/mL Aprotinin, 1 μg/mL soybean trypsin) supplemented with 1 μL/mL of benzonase. To facilitate lysis, crude lysate was drawn 10 times with a needle and incubated for 30 min on ice before clearing by centrifugation.
Affinity matrices were washed 4 times with 1 mL Buffer A, and proteins were eluted 2× with 50 μL of 2× Laemmli buffer containing 25 mM DTT in PBS for 5 min at 95 °C.

Usually IC50 stands for the concentration needed to halve the response being measured. `C=CC(=O)N1CCC(c2nn(C3CCN(C)CC3)c3ncnc(N)c23)CC1` [Compound 15, 1-(4-(4-Amino-1-(1-methylpiperidin-4-yl)-1H-pyrazolo[3,4-d]pyrimidin-3-yl)piperidin-1-yl)prop-2-en-1-one]: the IC50 on NUDT5 [1] is > 50 µM. The “NUDT5 IC50” value on NUDT5 [1] (AMP-Glo) is on record as “not active”. Also, at recombinant human NUDT14 (setting [7]), the IC50 was > 50 µM and the “NUDT14 IC50” value is “inactive”.

As for `Cn1nc(-c2ccc(Oc3ccccc3)cc2)c2c(N)ncnc21` [Compound 10, 1-Methyl-3-(4-phenoxyphenyl)-1H-pyrazolo[3,4-d]pyrimidin-4-amine], at recombinant human NUDT14 (setting [7]), the IC50 came to 0.263 ± 0.031 µM.

For the molecule `CC#CC(=O)N1CCC[C@H]1c1nc(-c2ccc(C(=O)Nc3ccccn3)cc2)c2c(N)nccn12` [Compound 2, acalabrutinib, reference compound], the NUDT5 inhibition entry on NUDT5 [1] was “did not show any inhibition”. Further, the “NUDT5 IC50” value on NUDT5 [1] (AMP-Glo) is recorded as “not active”.

For `C=CC(=O)N1CCC=C(c2nn(C3CCN(C)CC3)c3ncnc(N)c23)C1` [Compound 13, 1-(5-(4-Amino-1-(1-methylpiperidin-4-yl)-1H-pyrazolo[3,4-d]pyrimidin-3-yl)-3,6-dihydropyridin-1(2H)-yl)prop-2-en-1-one], the IC50 against NUDT5 [1] was > 50 µM; at recombinant human NUDT14 (setting [7]) it was 3.72 ± 0.19 µM. The “NUDT5 IC50” value on NUDT5 [1] (AMP-Glo) was “not active”.

For the molecule `C=CC(=O)NCc1ccc(-c2nn(C3CCN(C)CC3)c3ncnc(N)c23)cc1` [Compound 14, N-(4-(4-Amino-1-(1-methylpiperidin-4-yl)-1H-pyrazolo[3,4-d]pyrimidin-3-yl)benzyl)acrylamide], on recombinant human NUDT14 (setting [7]), the IC50 was 1.64 ± 0.14 µM.

In general, Kd refers to the constant that tells how readily two partners part at equilibrium. Low values mean tighter binding, high ones weaker binding. In the case of `C=CC(=O)N1CCC[C@@H](n2nc(-c3ccc(Oc4ccccc4)cc3)c3c(N)ncnc32)C1` [Compound 1, ibrutinib], the Kd on NUDT5 [2] was 0.209 ± 0.062 µM; in data set [3] it was 1.9 ± 0.5 µM; at NUDT9, > 100 µM; at NUDT18 it was > 100 µM; at NUDT1 it was 3.5 ± 0.28 µM; at NUDT7 it was > 100 µM. Besides, the Kd at NUDT17, at NUDT16, on NUDT12, on NUDT16L1 and at NUDT15 was > 100 µM throughout.

As to `CC#CC(=O)N[C@H]1CCCN(c2c(F)cc(C(N)=O)c3[nH]c(C)c(C)c23)C1` [Compound 3, branebrutinib, reference compound], on NUDT5 [1], the NUDT5 inhibition entry is on record as “did not show any inhibition”. Besides, at NUDT5 [1] (AMP-Glo), the “NUDT5 IC50” value is recorded as “not active”.

A word on the EC50: it is the concentration that produces a half-maximal response. Read a high EC50 as a less potent agent. Regarding `Cn1c(=O)c2c(nc(N3CCNCC3)n2Cc2nnc(-c3ccc(Cl)c(Cl)c3)o2)n(C)c1=O` [Compound 6, TH5427], the “NUDT14 stabilisation compared to DMSO” value in data set [4] is given as “does not stabilise NUDT14”. In data set [5], this molecule came in with an EC50 of 0.004 ± 0.001 µM.

As for `C=CC(=O)N1CC=C(c2nn(C3CCN(C)CC3)c3ncnc(N)c23)CC1` [Compound 12, 1-(4-(4-Amino-1-(1-methylpiperidin-4-yl)-1H-pyrazolo[3,4-d]pyrimidin-3-yl)-3,6-dihydropyridin-1(2H)-yl)prop-2-en-1-one], the IC50 at NUDT5 [1] (setting [8]) and on recombinant human NUDT14 (setting [7]) was > 50 µM each time. In addition, the “NUDT5 IC50” value on NUDT5 [1] (AMP-Glo) is listed as “not active”. The “NUDT14 IC50” value on recombinant human NUDT14 (supplementary CSV) is “not active”.

Turning to `Cn1c(=O)c2c(nc(N3CCN(CCCCN)CC3)n2Cc2nnc(-c3ccc(Cl)c(Cl)c3)o2)n(C)c1=O.O=C(O)C(F)(F)F` [Compound 7, 4-(4-(7-((5-(3,4-Dichlorophenyl)-1,3,4-oxadiazol-2-yl)methyl)-1,3-dimethyl-2,6-dioxo-2,3,6,7-tetrahydro-1H-purin-8-yl)piperazin-1-yl)butan-1-aminium Trifluoroacetate], the “binding to endogenous NUDT5 (pull-down, Western blot)” value on endogenous NUDT5 is given as “retained binding”.

With `Nc1ncnc2[nH]nc(-c3ccc(Oc4ccccc4)cc3)c12` [Compound 11, 3-(4-Phenoxyphenyl)-1H-pyrazolo[3,4-d]pyrimidin-4-amine], at recombinant human NUDT14 (setting [7]), the IC50 is 0.519 ± 0.084 µM.

In the case of `C=CC(=O)N1CCC[C@@H](n2nc(-c3ccc(Oc4ccccc4)cc3)c3c(N)ncnc32)C1` [Compound 1, ibrutinib, reference compound], the IC50 on NUDT5 [1] (setting [8]) is 0.837 ± 0.329 µM; at recombinant human NUDT14 (setting [7]) it was 0.99 ± 0.11 µM; in the data set on BT-474 cells, 0.027 ± 0.011 µM.

B1: NUDT14 (enzyme, human, UniProt O95848 1-222, looked up)
chain: MERIEGASVGRCAASPYLRPLTLHYRQNGAQKSWDFMKTHDSVTVLLFNSSRRSLVLVKQFRPAVYAGEVERRFPGSLAAVDQDGPRELQPALPGSAGVTVELCAGLVDQPGLSLEEVACKEAWEECGYHLAPSDLRRVATYWSGVGLTGSRQTMFYTEVTDAQRSGPGGGLVEEGELIEVVHLPLEGAQAFADDPDIPKTLGVIFGVSWFLSQVAPNLDLQ
In general, stoichiometry N refers to a count of units in the complex or per binding partner. Turning to B1, the “stoichiometry N” value in [6] amounted to 2.
